Experimental data published in US20260284014A1, “3,5-DIAMINOTRIAZOLE DERIVATIVES AND USES THEREOF FOR TREATING OCULAR DISEASES” (CENTRE NATIONAL DE LA RECHERCHE SCIENTIFIQUE, priority 2023, published 2026).
“Also recorded” adds a separate entry of the source.

Assays:
[1] = system: ocular (retinal) neo-angiogenesis; experiment: Hypoxia-induced retinal neo-angiogenesis in zebrafish; format: in vivo; conditions: hypoxia 5% oxygen 72 h, 0.25, 0.5, or 1 μM
Description: All animal experiments were approved by the Experimental Animal Ethical Committee. Transgenic zebrafish embryos (fli: EGFP, blood vessels marked in GFP) were raised at 28° C. under standard experimental conditions. Zebrafish embryos at the age of 24 hpf were incubated in aquarium water containing 0.2 mmol/L 1-phenyl-2-thio-urea (PTU, Sigma). At 48-hpf, zebrafish embryos were placed for 72 h in normoxia (Nx) or hypoxia 5% oxygen […], in the presence of treatment. Retinal neo-angiogenesis was analyzed by fluorescent confocal microscope and quantified by ImageJ.

[2] = system: ARPE-19 cells; experiment: Cell viability (XTT assay); format: cell-based; conditions: Homo sapiens, 48 h, read-out: A. Safety IC50 on ARPE-19 cells
Description: ARPE-19 cells were incubated in a 96-well plate with different effectors for 48 hours. Fifty microliters of sodium 3′-[1-phenylaminocarbonyl)-3,4-tetrazolium]-bis(4-methoxy-6-nitro) benzene sulfonic acid hydrate (XTT) reagent was added to each well. The test is based on the cleavage of the yellow tetrazolium salt XTT to form an orange formazan dye by metabolically active cells. This bio-reduction occurs in viable cells only and is associated with NAD(P)H production through glycolysis. Therefore, the amount of formazan dye measured at 490 nm, correlates directly with the number of metabolically active cells reflecting cell proliferation, viability, and cytotoxicity. Each assay was performed in quadruplicate.
(§1) All compounds were evaluated in different experiments. Results are represented as the mean of three independent experiments. A. ARPE-19 cells were treated with dose response of compound for 48 h. Values are reported as IC50 measured with the XTT assay. B and C. ARPE-19 cells were treated with 5 μM (B) or 1 μM (C) compound then with 200 μM H2O2 for 2 h. ROS were analyzed by cytometry. […] As illustrated in FIG. 1A. D. ARPE-19 cells were treated with 2.5 μM compound for 48 h and the level of CXCL1 mRNA was evaluated by qPCR. […] As illustrated in FIG. 1B. E. TIME cells were pre-treated with 2.5 μM compound for 1 h then stimulated with 100 ng/ml CXCL8 for 15 min p-ERK levels were analyzed by immunoblotting. HSP90 served as loading control. […] As illustrated in FIG. 1C.

[3] = system: pro-inflammatory, pro-angiogenic and/or pro-fibrotic mRNA markers; experiment: ARPE-19 stimulation to mimic diabetic retinopathy in vitro, mRNA by qPCR; format: cell-based; conditions: ARPE-19, high glucose + cytokines, 5 or 10 μM
Description: One microgram of total RNA was used for the reverse transcription, using the QuantiTect Reverse Transcription kit (QIAGEN, Hilden, Germany), with blend of oligo (dT) and random primers to prime first-strand synthesis. SYBR master mix plus (Eurogentec) was used for qPCR. The mRNA level was normalized to 36B4 mRNA
(§2) ARPE-19 cells were cultured in hyperglycaemic conditions (D-glucose, 25 mmol/l) for 16 days at 37° C. under 5% CO2 in medium (DMEM/F12) supplemented with 10% FBS and 1% penicillin. On day 16, cells were pre-treated with MCK349. On day 17, cells were washed and treated with MCK349 and cytokines (10 ng/ml IL1ß, 25 ng/ml VEGF and 25 ng/ml TNFα) for 24 h. Cytokines are analyzed by multiplex ELISA (Meso Scale Discovery) on the supernatant. Cells were recovered to analyze the mRNA level of different markers by qPCR.

[4] = system: ROS; experiment: ROS labeling by cytometry after H2O2; format: cell-based; conditions: for inhibition at 1 µM / inhibition at 5 µM: Homo sapiens, ARPE-19; for inhibition at 1 µM: 1 μM compound then 200 μM H2O2 for 2 h, read-out: C. ROS inhibition 1 μM - ARPE-19 cells; for inhibition at 5 µM: 5 μM compound then 200 μM H2O2 for 2 h, read-out: B. ROS inhibition 5 μM - ARPE-19 cells
Description: ARPE-19 cells were treated with MCK349 30 minutes then with 200 μM H2O2 for 2 h. 10 μM DCF-DA (2′,7′-Dichlorofluorescein diacetate) were added on cell media for 30 min. Cells were rinsed then detached (trypsin) and resuspended in PBS 0.5% BSA and 2 mM EDTA. The cells are analyzed by cytometry (ROS labeled with DCFDA-FITC).
as §1

[5] = system: pro-inflammatory cytokines; experiment: LPS stimulated whole blood, multiplex ELISA; format: cell-based; conditions: human whole blood, 5 or 10 μM 1 h prior to 10 ng/ml LPS for 18 h
Description: Human peripheral […] were obtained from healthy donors with informed consent following the Declaration of Helsinki according to recommendations of an independent scientific review board. The project has been validated by The Etablissement Français du Sang, the French national agency for blood collection (protocol 7952NQ). Blood samples were collected using ethylene diamine tetraacetic acid-containing tubes.
Whole blood will be removed from a single donor (K3-EDTA) and diluted 1:5 with RPMI 1640. Within 30 minutes of sampling, blood will be incubated with 5 or 10 μM MCK349 for 1 h prior to 10 ng/ml LPS stimulation for 18 h. Blood is centrifuged to recover plasma and cytokines are analyzed by multiplex ELISA (Meso Scale Discovery).
(§3) Cytokines from plasma (whole blood) or supernatant (ARPE-19 cells) were analyzed by multiplex ELISA. A multiplex ELISA was designed from U-PLEX Biomarker Group 1 (hu) Assays (K15069L-1). The protocol performed follows the instructions of the supplier.

[6] = system: pro-inflammatory, pro-angiogenic and/or pro-fibrotic cytokines; experiment: ARPE-19 stimulation to mimic diabetic retinopathy in vitro, cytokines by multiplex ELISA; format: cell-based; conditions: ARPE-19, high glucose + cytokines, 5, 10, or 25 μM
Description: as §2, §3

[7] = system: ERK activation (p-ERK); experiment: p-ERK immunoblotting after CXCL8 stimulation; format: cell-based; conditions: 2.5 μM compound 1 h then 100 ng/ml CXCL8 for 15 min; read-out: E. p-ERK inhibition - TIME
Description: Cells were lysed in buffer containing 3% SDS, 10% glycerol and 0.825 mM Na2HPO4. 30 to 50 μg of proteins separated on 10% SDS-PAGE, transferred onto a PVDF membrane and then exposed to the appropriate antibodies. Proteins were visualized with the ECL system using horseradish peroxidase-conjugated anti-rabbit or anti-mouse antibodies.
as §1

[8] = system: TIME cells; experiment: Vessels formation assay on Matrigel; format: cell-based; conditions: 5 or 10 μM
Description: 300 μL of Matrigel Matrix were coated in 24-well plates and put 1 h a 37° C. Then Time cells were plated (300 000 cells/well). Plates were then incubated at 37° C., 5% CO2 for 24 hours. Representative images were taken with the Evos XL Core Cell Imaging System at low magnification (4×).

[9] = system: choroidal neovascularization (CNV); experiment: Laser induced choroidal neovascularization and vascular leakage in mice; format: in vivo; conditions: intravitreal 52 μg/ml (2 μl) four times, Day 9 and 15
Description: Laser photocoagulation (shoot retina with laser beam (50 μm, 0.1 s, and 250~300 mW or any other parameters reasonable) for 4 spots avoiding blood vessels) were performed binocularly on each animal at Day 1 on male C57 mice (8 mice per group).
Vehicle and MCK349 (52 μg/ml) were delivered by binocular intravitreal injection (2 μl) four times in total. Once on Day 1 (right after modeling), Day 4, Day 7 and Day 11. Optical Coherence Tomography (OCT) was performed once on modeling day right after laser photocoagulation and once on Day 9 and Day 15. CNV volume of each lesion will be measured. Fundus Fluorescein Angiography (FFA) was conducted once on Day 9 and Day 15. The angiograms will be graded as follows: Grade 0, no bright hyperfluorescence; Grade 1, hyperfluorescence without leakage; Grade 2a, hyperfluorescence and late leakage; and Grade 2b, bright hyperfluorescence and late leakage beyond treated areas.

[10] = system: TIME cells; experiment: Endothelial cells proliferation; format: cell-based; conditions: 72 h
Description: TIME cells were plated in 12-well plates (25 000 cells/well) in 0.5% SVF media and then stimulated with 100 ng/mL CXCL8 or CXCL7 for 72 h. Cell proliferation is assessed by cell count. The results are expressed as % of day 0 relative to the condition tested.

Row | Structure (SMILES) | ocular (retinal) neo-angiogenesis in zebrafish [1] | ocular (retinal) neo-angiogenesis in zebrafish ([1]; listed as MC342) | IC50 [2] [µM] | expression (mRNA) of pro-angiogenic and/or pro-inflammatory cytokines in diabetic retinopathy model in vitro [3] | inhibition at 1 µM [4] [%] | inhibition at 5 µM [4] [%] | pro-inflammatory cytokines induced by LPS stimulation in whole blood [5] | secretion of pro-angiogenic and/or pro-inflammatory cytokines in diabetic retinopathy model in vitro [6] | inhibition at 2.5 µM [7] [%] | oxidative stress (ROS) inhibition ([4]; ARPE-19, 1 μM MCK349 then 200 μM H2O2 for 2 h) | vessel formation on matrigel [8] | choroidal neovascularization (CNV) [9] | vascular leakage (FFA grade 2b lesions) [9] | endothelial cell proliferation induced by CXCL7 ([10]; 100 ng/mL CXCL7, 0.1, 0.2 or 0.5 μM) | endothelial cell proliferation induced by CXCL8 ([10]; 100 ng/mL CXCL8, 0.1, 0.2 or 0.5 μM)
1 | Cc1ccc(Nc2nc(N)n(Cc3cccc(Br)c3)n2)cc1 [MCK342, 1-(3-bromobenzyl)-N^3-(4-methylphenyl)-1H-1,2,4-triazole-3,5-diamine] | inhibit ocular neoangiogenesis | inhibit ocular (retinal) neo-angiogenesis | > 25 | inhibit the expression | ≥ 50 | ≥ 50 | inhibit pro-inflammatory cytokines | inhibit the expression (mRNA, FIG. 3) and secretion | < 50 | – | – | – | – | – | –
2 | Nc1nc(Nc2ccc(Cl)c(Cl)c2)nn1Cc1cccc(Br)c1 [MCK349, 1-(3-bromobenzyl)-N^3-(3,4-dichlorophenyl)-1H-1,2,4-triazole-3,5-diamine] | inhibit ocular (retinal) neo-angiogenesis; also recorded: inhibit ocular neoangiogenesis | – | > 25 | inhibits pro-inflammatory, pro-angiogenic and/or pro-fibrotic mRNA markers; also recorded: inhibit the expression | ≥ 50 | ≥ 50 | inhibit pro-inflammatory cytokines | inhibits pro-inflammatory, pro-angiogenic and/or pro-fibrotic cytokines; also recorded: inhibit the expression (mRNA, FIG. 3) and secretion | ≥ 50 | inhibits oxidative stress | inhibiting vessel formation on matrigel | inhibits vascular leakage (FIGS. 9A and B) and neovascularization; also recorded: inhibits choroidal neovascularization (CNV) | inhibits choroidal neovascularization (CNV) and vascular leakage | inhibiting endothelial cell proliferation | inhibiting endothelial cell proliferation induced by CXCL8
